Laboratory results reported in ChEMBL document CHEMBL3045199, “Synthesis of some (E)-6-[2-(furan-2-yl)ethenyl]-1,2,4-triazin-5-ones and their biological evaluation as antitumor agents” (2013).

How the values were obtained:
Format in all cases: functional
[1] = tested on: T47D; assay: Cytotoxicity against Homo sapiens (human) T47D cells assessed as growth inhibition at 10 uM after 24 hr; conditions: read-out: GI
[2] = tested on: UO-31; assay: Cytotoxicity against Homo sapiens (human) UO31 cells assessed as growth inhibition at 10 uM after 24 hr; conditions: UO-31, 24 h, read-out: GI
[3] = tested on: IGROV-1; assay: Cytotoxicity against Homo sapiens (human) IGROV1 cells assessed as growth inhibition at 10 uM after 24 hr; conditions: IGROV-1, 24 h, read-out: GI
[4] = tested on: MDA-MB-468; assay: Cytotoxicity against Homo sapiens (human) MDA-MB-468 cells assessed as growth inhibition at 10 uM after 24 hr; conditions: MDA-MB-468, 24 h, read-out: GI
[5] = tested on: RXF 393; assay: Cytotoxicity against Homo sapiens (human) RXF393 cells assessed as growth inhibition at 10 uM after 24 hr; conditions: RXF 393, 24 h, read-out: GI
[6] = tested on: MCF7; assay: Cytotoxicity against Homo sapiens (human) MCF7 cells assessed as growth inhibition at 10 uM after 24 hr; conditions: MCF7, 24 h, read-out: GI
[7] = tested on: SK-MEL-2; assay: Cytotoxicity against Homo sapiens (human) SK-MEL-2 cells assessed as growth inhibition at 10 uM after 24 hr; conditions: SK-MEL-2, 24 h, read-out: GI
[8] = tested on: HL-60(TB); assay: Cytotoxicity against Homo sapiens (human) HL-60(TB) cells assessed as growth inhibition at 10 uM after 24 hr; conditions: HL-60, 24 h, read-out: GI
[9] = tested on: OVCAR-8; assay: Cytotoxicity against Homo sapiens (human) OVCAR8 cells assessed as growth inhibition at 10 uM after 24 hr; conditions: OVCAR-8, 24 h, read-out: GI

| Structure (SMILES) | inhibition of growth at 10 µM [1] [%] | inhibition of growth at 10 µM [2] [%] | inhibition of growth at 10 µM [3] [%] | inhibition of growth at 10 µM [4] [%] | inhibition of growth at 10 µM [5] [%] | inhibition of growth at 10 µM [6] [%] | inhibition of growth at 10 µM [7] [%] | inhibition of growth at 10 µM [8] [%] | inhibition of growth at 10 µM [9] [%] |
| --- | --- | --- | --- | --- | --- | --- | --- | --- | --- |
| O=C(CSc1nc(=O)c(/C=C/c2ccco2)n[nH]1)c1ccc(Cl)cc1 | 38.3 | 33.3 | 80.4 | 57.3 | 62.5 | 80.8 | 42.3 | – | – |
| O=C1CC(=O)N(c2nc(=O)c(/C=C/c3ccco3)n[nH]2)N1 | – | – | – | – | – | – | – | 54.3 | – |
| Nn1c(=S)[nH]nc(/C=C/c2ccco2)c1=O | – | – | 77 | – | – | 72.7 | 70.7 | – | 59.1 |
| O=c1c(/C=C/c2ccco2)n[nH]c(=S)n1/N=C/c1ccc([N+](=O)[O-])cc1 | – | – | 75.6 | – | – | 73.1 | 70.3 | – | 47.8 |
